Columns and labels:
[1] = target: T1, ATP-dependent translocase ABCB1 (Homo sapiens, UniProt P08183); assay: TP_TRANSPORTER: transepithelial transport (basal to apical) in MDR1-expressing LLC-PK1 cells; format: functional, cell-based; conditions: pig
[2] = target: T1, ATP-dependent translocase ABCB1; assay: TP_TRANSPORTER: inhibition of Digoxin transepithelial transport (basal to apical) (Digoxin: 5 uM, Albendazole: 100 uM) in MDR1-expressing LLC-PK1 cells; format: functional, cell-based; conditions: pig, llc-pk1, 100 µM
[3] = target: P-glycoprotein 1 and 3 (MDR1a/MDR1b) (Mus musculus, UniProt P21447+P06795); assay: TP_TRANSPORTER: tissue distribution in mdr1a/1b(-/-) mouse; format: functional, organism-based; conditions: in vivo

T1 sequence (P08183 whole entry): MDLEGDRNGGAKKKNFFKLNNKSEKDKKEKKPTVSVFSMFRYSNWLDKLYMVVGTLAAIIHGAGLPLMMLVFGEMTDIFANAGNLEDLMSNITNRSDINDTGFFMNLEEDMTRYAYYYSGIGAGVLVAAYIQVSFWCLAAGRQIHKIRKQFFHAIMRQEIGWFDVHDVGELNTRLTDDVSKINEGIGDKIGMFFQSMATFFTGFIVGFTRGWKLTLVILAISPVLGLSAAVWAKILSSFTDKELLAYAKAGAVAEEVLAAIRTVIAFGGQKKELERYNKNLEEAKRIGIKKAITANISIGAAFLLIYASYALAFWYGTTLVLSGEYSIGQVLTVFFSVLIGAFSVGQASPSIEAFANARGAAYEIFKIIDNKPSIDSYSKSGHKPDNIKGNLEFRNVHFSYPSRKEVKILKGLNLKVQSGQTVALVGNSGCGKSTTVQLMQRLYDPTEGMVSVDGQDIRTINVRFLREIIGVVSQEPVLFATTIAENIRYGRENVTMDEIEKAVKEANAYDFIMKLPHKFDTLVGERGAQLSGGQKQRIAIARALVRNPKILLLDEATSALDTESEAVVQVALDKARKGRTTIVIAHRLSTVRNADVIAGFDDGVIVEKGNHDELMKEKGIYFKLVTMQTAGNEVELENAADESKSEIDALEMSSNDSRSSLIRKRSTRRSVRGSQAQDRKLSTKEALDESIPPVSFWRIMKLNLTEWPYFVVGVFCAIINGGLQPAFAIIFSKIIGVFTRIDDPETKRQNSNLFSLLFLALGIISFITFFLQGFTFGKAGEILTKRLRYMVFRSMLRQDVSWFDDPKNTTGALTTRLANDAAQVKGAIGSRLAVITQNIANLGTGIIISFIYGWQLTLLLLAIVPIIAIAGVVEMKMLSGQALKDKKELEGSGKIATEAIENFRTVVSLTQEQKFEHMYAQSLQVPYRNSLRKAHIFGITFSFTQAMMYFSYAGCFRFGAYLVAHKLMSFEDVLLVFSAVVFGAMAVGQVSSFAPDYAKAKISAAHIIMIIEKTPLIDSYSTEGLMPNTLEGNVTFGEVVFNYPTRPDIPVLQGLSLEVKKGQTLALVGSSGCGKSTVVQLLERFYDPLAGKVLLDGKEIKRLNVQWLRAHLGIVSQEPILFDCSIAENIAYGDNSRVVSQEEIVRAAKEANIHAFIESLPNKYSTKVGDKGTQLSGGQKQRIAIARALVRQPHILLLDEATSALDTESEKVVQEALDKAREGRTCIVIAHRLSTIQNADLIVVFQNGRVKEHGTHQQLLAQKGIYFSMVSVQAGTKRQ

For `CCCSc1ccc2nc(NC(=O)OC)[nH]c2c1` [ALBENDAZOLE], which Activity [1] is on record?
The Activity was “is not a substrate [-]”.

And the Activity [2]?
The Activity was “is not an inhibitor [-]”.

What about the Activity [3] of the same compound?
The Activity was “is not a substrate [-]”.
